Source: ChEMBL document CHEMBL1201862, “PubChem BioAssay data set” (2004)
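Protocol summary: plate cells (96-well), add compound at 5 concentrations, incubate 48 h, interpolate endpoints linearly. GI50 marks 50% less growth.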 Active and inactive are the calls of the source. Cut-off read from the data, not from the text of the source: active = GI50 up to about 1.1 µM and inactive = higher.

Key:
Assay in all cases: NCI-60 cell line screen, 48 h
MDA-MB-435 = tested on: MDA-MB-435
SK-MEL-28 = tested on: SK-MEL-28
MDA-MB-231 = tested on: MDA-MB-231
SK-MEL-5 = tested on: SK-MEL-5
NCI/ADR-RES = tested on: NCI/ADR-RES
KM12 = tested on: KM12
CCRF-CEM = tested on: CCRF-CEM
SF-295 = tested on: SF-295
ACHN = tested on: ACHN
SW-620 = tested on: SW-620
NCI-H522 = tested on: NCI-H522
HT-29 = tested on: HT-29
A549 = tested on: A549
SNB-19 = tested on: SNB-19
786-0 = tested on: 786-0
SK-MEL-2 = tested on: SK-MEL-2
T47D = tested on: T47D
UACC-62 = tested on: UACC-62
EKVX = tested on: EKVX
RPMI-8226 = tested on: RPMI-8226
SR = tested on: SR
OVCAR-4 = tested on: OVCAR-4
UO-31 = tested on: UO-31
COLO 205 = tested on: COLO 205
SF-268 = tested on: SF-268
HCT-116 = tested on: HCT-116
DU-145 = tested on: DU-145
LOX IMVI = tested on: LOX IMVI
SF-539 = tested on: SF-539
K562 = tested on: K562
HCT-15 = tested on: HCT-15
PC-3 = tested on: PC-3
RXF 393 = tested on: RXF 393
Hs-578T = tested on: Hs-578T
OVCAR-8 = tested on: OVCAR-8
MCF7 = tested on: MCF7
NCI-H460 = tested on: NCI-H460
HOP-62 = tested on: HOP-62
CAKI-1 = tested on: CAKI-1
MOLT-4 = tested on: MOLT-4
SK-OV-3 = tested on: SK-OV-3
IGROV-1 = tested on: IGROV-1
BT-549 = tested on: BT-549
NCI-H226 = tested on: NCI-H226
UACC-257 = tested on: UACC-257
SNB-75 = tested on: SNB-75
M14 = tested on: M14
Malme-3M = tested on: Malme-3M
SN12C = tested on: SN12C
NCI-H23 = tested on: NCI-H23
OVCAR-5 = tested on: OVCAR-5
U-251 = tested on: U-251
OVCAR-3 = tested on: OVCAR-3
A498 = tested on: A498
HOP-92 = tested on: HOP-92
TK-10 = tested on: TK-10
HL-60 = tested on: HL-60

With Cc1cc(C(O)CNC(C)CCn2cnc3c2c(=O)n(C)c(=O)n3C)ccc1O (stereo unspecified) the GI50 (MDA-MB-435) was > 100 µM (inactive), the GI50 (SK-MEL-28) was > 100 µM (inactive) and the GI50 (MDA-MB-231) was > 100 µM (inactive). For the same compound, the GI50 (SK-MEL-5) was > 100 µM (inactive), the GI50 (NCI/ADR-RES) was > 100 µM (inactive) and the GI50 (KM12) was > 100 µM (inactive). The GI50 (CCRF-CEM) was > 100 µM (inactive), the GI50 (SF-295) was > 100 µM (inactive) and the GI50 (ACHN) was > 100 µM (inactive). The GI50 (SW-620) was > 100 µM (inactive), the GI50 (NCI-H522) was > 100 µM (inactive) and the GI50 (HT-29) was > 100 µM (inactive). The GI50 (A549) was > 100 µM (inactive), the GI50 (SNB-19) was > 100 µM (inactive) and the GI50 (786-0) was > 100 µM (inactive). For the same compound, the GI50 (SK-MEL-2) was > 100 µM (inactive), the GI50 (T47D) was > 100 µM (inactive) and the GI50 (UACC-62) was > 100 µM (inactive). For the same compound, the GI50 (EKVX) was > 100 µM (inactive), the GI50 (RPMI-8226) was > 100 µM (inactive) and the GI50 (SR) was > 100 µM (inactive). For the same compound, the GI50 (OVCAR-4) was > 100 µM (inactive), the GI50 (UO-31) was > 100 µM (inactive) and the GI50 (COLO 205) was > 100 µM (inactive). The GI50 (SF-268) was > 100 µM (inactive), the GI50 (HCT-116) was > 100 µM (inactive) and the GI50 (DU-145) was > 100 µM (inactive). For the same compound, the GI50 (LOX IMVI) was > 100 µM (inactive), the GI50 (SF-539) was > 100 µM (inactive) and the GI50 (K562) was > 100 µM (inactive). The GI50 (HCT-15) was > 100 µM, the GI50 (PC-3) was > 100 µM (inactive) and the GI50 (RXF 393) was > 100 µM (inactive). For the same compound, the GI50 (Hs-578T) was > 100 µM (inactive), the GI50 (OVCAR-8) was > 100 µM (inactive) and the GI50 (MCF7) was > 100 µM (inactive). For the same compound, the GI50 (NCI-H460) was > 100 µM (inactive), the GI50 (HOP-62) was > 100 µM (inactive) and the GI50 (CAKI-1) was > 100 µM (inactive). For the same compound, the GI50 (MOLT-4) was > 100 µM (inactive), the GI50 (SK-OV-3) was > 100 µM (inactive) and the GI50 (IGROV-1) was > 100 µM (inactive). For the same compound, the GI50 (BT-549) was > 100 µM (inactive), the GI50 (NCI-H226) was > 100 µM (inactive) and the GI50 (UACC-257) was > 100 µM (inactive). For the same compound, the GI50 (SNB-75) was > 100 µM (inactive), the GI50 (M14) was > 100 µM (inactive) and the GI50 (Malme-3M) was > 100 µM (inactive). The GI50 (SN12C) was > 100 µM (inactive), the GI50 (NCI-H23) was > 100 µM (inactive) and the GI50 (OVCAR-5) was > 100 µM (inactive). For the same compound, the GI50 (U-251) was > 100 µM (inactive), the GI50 (OVCAR-3) was > 100 µM (inactive) and the GI50 (A498) was > 100 µM (inactive). The GI50 (HOP-92) was > 100 µM (inactive) and the GI50 (TK-10) was > 100 µM (inactive).
CC12CCc3ccccc3C1=Nc1ccccc12 (stereo unspecified) was tested, and the GI50 (MDA-MB-435) was 25.3 µM (inactive), the GI50 (SK-MEL-28) was 90.2 µM (inactive) and the GI50 (MDA-MB-231) was 24.2 µM (inactive). For the same compound, the GI50 (HL-60) was 28.8 µM (inactive), the GI50 (SK-MEL-5) was 12.6 µM (inactive) and the GI50 (NCI/ADR-RES) was 22.4 µM (inactive). For the same compound, the GI50 (KM12) was 24.1 µM (inactive), the GI50 (CCRF-CEM) was 25.1 µM (inactive) and the GI50 (SF-295) was 44.4 µM (inactive). The GI50 (ACHN) was 64.7 µM (inactive), the GI50 (SW-620) was 45.9 µM (inactive) and the GI50 (NCI-H522) was 23.7 µM (inactive). The GI50 (HT-29) was 29.9 µM (inactive), the GI50 (A549) was 73.5 µM (inactive) and the GI50 (SNB-19) was > 100 µM (inactive). For the same compound, the GI50 (786-0) was 49.2 µM (inactive), the GI50 (SK-MEL-2) was 47.9 µM (inactive) and the GI50 (T47D) was 21.1 µM (inactive). For the same compound, the GI50 (UACC-62) was 29.4 µM (inactive), the GI50 (EKVX) was 25.1 µM (inactive) and the GI50 (SR) was 45.3 µM (inactive). The GI50 (OVCAR-4) was 41.3 µM (inactive), the GI50 (UO-31) was 24.3 µM (inactive) and the GI50 (COLO 205) was 42.8 µM (inactive). The GI50 (SF-268) was 98.2 µM (inactive), the GI50 (HCT-116) was 32.7 µM (inactive) and the GI50 (DU-145) was > 100 µM (inactive). The GI50 (LOX IMVI) was 40.8 µM (inactive), the GI50 (SF-539) was 14.2 µM (inactive) and the GI50 (K562) was 31 µM (inactive). The GI50 (HCT-15) was 38.1 µM, the GI50 (PC-3) was 14.3 µM (inactive) and the GI50 (RXF 393) was 74.3 µM (inactive). For the same compound, the GI50 (Hs-578T) was 2.14 µM (inactive), the GI50 (OVCAR-8) was 42.5 µM (inactive) and the GI50 (MCF7) was 48.6 µM (inactive). The GI50 (NCI-H460) was 37.3 µM (inactive), the GI50 (HOP-62) was 86.1 µM (inactive) and the GI50 (CAKI-1) was 17.7 µM (inactive). For the same compound, the GI50 (MOLT-4) was 30.4 µM (inactive), the GI50 (SK-OV-3) was > 100 µM (inactive) and the GI50 (IGROV-1) was 71.1 µM (inactive). For the same compound, the GI50 (BT-549) was 17.8 µM (inactive), the GI50 (NCI-H226) was 21.8 µM (inactive) and the GI50 (UACC-257) was 49.8 µM (inactive). For the same compound, the GI50 (SNB-75) was > 100 µM (inactive), the GI50 (M14) was 32.3 µM (inactive) and the GI50 (Malme-3M) was 28.1 µM (inactive). The GI50 (SN12C) was 0.164 µM (active), the GI50 (NCI-H23) was 31.1 µM (inactive) and the GI50 (OVCAR-5) was > 100 µM (inactive). The GI50 (U-251) was 44.6 µM (inactive), the GI50 (OVCAR-3) was 15.3 µM (inactive) and the GI50 (HOP-92) was 12.9 µM (inactive). The GI50 (TK-10) was 53.8 µM (inactive).
